Source: PMC9827864, “In Situ Inhibitor Synthesis and Screening by Fluorescence Polarization: An Efficient Approach for Accelerating Drug Discovery” (Angewandte Chemie (International Ed. in English), 2022)

Experiments:
[1] = Metabolic stability in mouse liver microsomes; type: in vitro ADME
[2] = system: reticulocytes in C57BL/6J mice; experiment: In vivo reticulocytes increased assay; design: species or system mouse
Experimental: A structure of PHD2 in complex with Fe and a 2OG competing inhibitor (PDB ID: 4KBZ) was obtained from PDB website. The structure files of protein and compounds for docking were prepared using the Discovery Studio (DS) 2020 software. A water molecule HOH624, conserved in the active binding site of PHD2, was retained during the docking. Residues of PHD2 around the native ligand (radius = 10 Å) were defined as the binding sites for docking. Subsequently, the ligand was removed; the Fe (II) was retained during the docking. Compounds were docked into the binding sites using GOLD 5.1. Docking procedures were performed using the default setting with 100 genetic algorithm (GA) runs of ligands. […]
17 was preincubated with microsomes from different species (0.5 mg/mL) at 1 μM for 5 min at 37 °C in 100 mM PBS buffer (pH 7.4). […] The samples were centrifuged at 5000 rpm f or 10 min; the supernatants were then analyzed by HPLC. […]
Representative compounds and Roxadustat were formulated in normal saline solution. […] Subsequently, these samples were analyzed for reticulocytes in the center for new drug safety evaluation and research of China Pharmaceutical University (ADVIA 2120 hematology system). […]
Plasma EPO was evaluated using the erythropoietin quantikine ELISA kit for mice (MEP00B). […]
in normal saline solution. […] Plasma was collected by centrifugation at 3000 rpm, these plasmas were detected by E PO […]

[3] = molecular target: T1, human prolyl hydroxylase 2 (PHD2) (Homo sapiens, UniProt Q9GZT9); experiment: Fluorescence polarization (FP) competition assay of PHD2; settings: purified compounds, 20 nM PHD2 (181-426), 30 nM probe, Cheng-Prusoff, mean±SD, read-out: Ki, binding affinity for PHD2
T1 construct: (181-426); made in house
Experimental: 2.1 Fluorescence polarization (FP) competition assay of PHD2 [4]
FP assays were performed using a SPARK Multi-Mode Microplate Reader (Tecan) with excitation and emission filters appropriate for the fluorophore used in the binding experiment. Fluorescence polarization experiments were performed in 384-well, flat bottom, black assay plates (#3575, Corning) in a final volume of 60 µL. The final assay buffer contained: 30 nM fluorescence Probe, 20 nM PHD2 (181-426), 10 mM HEPES, pH 7.4, 150 mM NaCl, 0.05% Tween-20, and at the 1% DMSO (except for DMSO tolerance experiments, in which different DMSO concentrations were used as indicated). All plates measured in fluorescence polarization assays were incubated for a minimum of 30 min at RT. Fluorescence polarization was measured from the top of the well with a Tecan SPARK plate reader with polarized filters and optical modules for fluorescein (λex = 485 nm ± 25 nm, λem = 535 nm ± 25 nm). The standard error of the mean (SEM) values, were calculated by dividing the sample standard deviation by the square root of the sample size and are recorded as ± values for IC 50. Dose-dependent experiments were performed in th e same manner using at least 10 concentrations of the test compounds in 3 -fold serial dilutions from 100 µM. For each assay, negative controls (equivalent to 0% displacement) contained the fluorescent ligand, PHD2 (181 -426), and 20 µL FP buffer; blank cont rols contained only the fluorescent ligand and 40 µL buffer.
The reaction mixtures were incubated at RT for 60 min, then total fluorescence and fluorescence polarization measurements wer e taken. The percentage inhibition was calculated using Equation 1, where mPfree is the signal for the free probe (blank control) and mPbound is the signal for the bound probe (negative control).
IC50s were determined for duplicate measurements by non-linear least-squares analysis using GraphPad Prism 8.0.
The Ki values of the inhibitors were calculated using the Cheng-Prusoff equation.[5] Cheng-Prusoff equation: Ki = IC50 / (1 + [L]/Kd)
The Kd value was determined using a constant concentration of probe and titrating with PHD2 protein at increasing concentrations. [L] represents the concentration of the […] used in the FP assay. […]

[4] = system: C57BL/6J mouse models of anemia induced by cisplatin; experiment: Improvement of anemia induced by cisplatin administration; type: in vivo; settings: cisplatin-induced anemia mice; for Improvement of anemia (%): po
Experimental: 5. Pharmacodynamic assay
The experimental mice (SPF, […], male) were obtained from SPF (Beijing) Biotechnology Co., Ltd (permit number: SCXK (Jing) 2019-0010). All animal related experiments were conducted under a China Pharmaceutical University (the certification of using the housing facility of laboratory animals: SYXK (Su) 2018 -0019) IACUC approved protocol in compliance with the guide for the care and use of laboratory animals (number: 202013705). […]
Representative compounds and Roxadustat were formulated in normal saline solution. […]
China Pharmaceutical University (ADVIA 2120 hematology system). […]
5.3 Improvement of anemia induced by cisplatin administration
C57BL/6J mice were treated with cisplatin ( po, 7 mg·kg-1) on days 0, 7, 14, and 28 of the experiment. On the 29th day, the animals were randomized into sham, control, and treated groups (n=5). […]
treatment anemia caused by cisplatin. The mice were treated with the compounds every alternate day for 30 days. the test sample is obtained via orbital venous plexus. The hemoglobin of samples was analyzed in the center for new drug safety evaluation and research at China Pharmaceutical University (ADVIA 2120 hematology system).

[5] = Metabolic stability in human liver microsomes; type: in vitro ADME
[6] = pH 7.4, read-out: t1/2 in liver microsomes

T1 sequence (Q9GZT9 181-426): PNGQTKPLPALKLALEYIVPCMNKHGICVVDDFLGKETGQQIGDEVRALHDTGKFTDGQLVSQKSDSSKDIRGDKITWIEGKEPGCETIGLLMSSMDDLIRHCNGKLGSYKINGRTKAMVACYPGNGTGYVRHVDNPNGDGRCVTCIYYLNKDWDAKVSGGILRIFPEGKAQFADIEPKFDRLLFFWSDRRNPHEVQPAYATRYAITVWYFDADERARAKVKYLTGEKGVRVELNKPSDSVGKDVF

Structure (SMILES): O=C(N/N=C/c1cccc(O)c1Cl)c1cnc(-c2cccnn2)[nH]c1=O [compound 17]
- compound present (remaining) in liver microsomes ([1]; after 50 min, 1 μM, 0.5 mg/mL): > 80%
- half-life at 1 μM [1, 6]: > 1.67 h
- reticulocyte induction ([2]; C57BL/6J male mice, 20 mg kg−1 po, three administrations, 72 h): superior with respect to inducing reticulocytes compared to the other tested ISISS compounds
- changes in reticulocytes, multiple doses ([2]; C57BL/6J mice, 5, 10 and 20 mg kg−1 po): dose‐dependent increase in reticulocytes
- Ki [3]: 27 ± 2 nM
- hemoglobin (Hb) levels ([4]; po 5, 10, 20 mg kg−1, every alternate day for 30 days): increased in a dose‐dependent manner
- Improvement of anemia (%) ([4]; 5 mg·kg^-1): 31.8%
- Improvement of anemia (%) ([4]; 10 mg·kg^-1): 51.5%
- Improvement of anemia (%) ([4]; 20 mg·kg^-1): 90.9%
- compound present (remaining) in liver microsomes ([5]; after 50 min, 1 μM, 0.5 mg/mL): > 80%
- half-life at 1 μM [5, 6]: > 1.67 h
